# Reference: patent US11020416B2, “Cancer chemotherapy employing halogenated analogs of thymidine” (priority 2015, dated 2021)
# Like-named read-outs stand apart in the source and are kept apart here.
# Key:
# [1] = biological target: T1, PARP1 (Homo sapiens, UniProt P09874); assay: Michaelis-Menten kinetic analysis of PARP1 enzymatic activity in solution (FIG. 1); assay type: biochemical
# Experimental: Cloned human PARP-1 (8 nanomolar) was incubated with 100 nanomolar dA/dT, 50 micrograms/milliliter histone Hi and varying concentrations (50, 150, 450 micromolar) of ^32P-NAD^+ in the absence and presence of inhibitor (50 micromolar) at physiological pH (7.3) as described (E. Kirsten, E. Kun, J. Mendeleyev, C. P. Ordahl, Methods in Molecular Biology 287 137 (2004) and Kun, 2004 op cit). Reactions were started by the addition of PARP-1 and incubated for 10 minutes at room temperature after which acid precipitable ^32P was determined.
# Target sequence in this assay (P09874 whole entry): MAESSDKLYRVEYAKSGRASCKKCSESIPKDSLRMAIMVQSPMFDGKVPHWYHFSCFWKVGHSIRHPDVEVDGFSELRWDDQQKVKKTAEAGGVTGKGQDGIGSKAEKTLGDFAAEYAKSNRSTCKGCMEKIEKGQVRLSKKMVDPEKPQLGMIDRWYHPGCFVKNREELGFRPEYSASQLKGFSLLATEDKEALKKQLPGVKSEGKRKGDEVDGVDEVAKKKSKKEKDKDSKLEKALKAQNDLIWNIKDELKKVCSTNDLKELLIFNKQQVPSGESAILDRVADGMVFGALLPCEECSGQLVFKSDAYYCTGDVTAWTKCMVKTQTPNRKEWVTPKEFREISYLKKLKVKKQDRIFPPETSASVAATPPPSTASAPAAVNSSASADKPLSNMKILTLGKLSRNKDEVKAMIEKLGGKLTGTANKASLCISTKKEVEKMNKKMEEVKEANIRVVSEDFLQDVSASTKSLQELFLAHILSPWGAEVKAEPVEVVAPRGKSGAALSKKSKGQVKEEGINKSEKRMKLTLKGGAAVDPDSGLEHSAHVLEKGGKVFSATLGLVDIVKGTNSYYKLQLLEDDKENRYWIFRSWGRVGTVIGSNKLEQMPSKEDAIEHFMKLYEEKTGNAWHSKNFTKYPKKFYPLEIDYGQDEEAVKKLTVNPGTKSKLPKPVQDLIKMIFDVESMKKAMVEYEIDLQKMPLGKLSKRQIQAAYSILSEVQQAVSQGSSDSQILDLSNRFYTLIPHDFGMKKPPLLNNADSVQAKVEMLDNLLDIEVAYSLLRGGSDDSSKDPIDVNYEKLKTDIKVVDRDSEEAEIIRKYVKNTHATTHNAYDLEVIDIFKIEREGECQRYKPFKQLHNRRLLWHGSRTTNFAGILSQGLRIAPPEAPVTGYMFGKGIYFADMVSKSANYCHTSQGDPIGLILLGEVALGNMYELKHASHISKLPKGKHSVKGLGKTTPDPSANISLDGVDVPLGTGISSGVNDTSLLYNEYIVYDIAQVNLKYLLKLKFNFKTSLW
# [2] = test system: Calu-6, a human lung carcinoma cell line; assay: 14-day culture of neoplastic cells with HAT, morphology and cell number (FIG. 2); assay type: cell-based; conditions: Calu-6, 10 micromolar, 14 days in culture (more than 300 without drug)
# Source text: (§1) FIGS. 2A-D illustrate HAT-Pi effects on two neoplastic cell lines; a) Calu-6, a human lung carcinoma cell line; and, b) DU-145, a human prostate metastatic carcinoma cell line.
# (§2) Additionally, the overall appearance of the cultures and the morphology of the surviving cells is altered in specific ways. First, the remaining (surviving) cells are tightly adherent to the surface of the culture dish giving them a “flattened” appearance. Second, neoplastic cell expansion is attributable to cytoplasmic growth, which leaves the smaller internal cell nuclei distinctive in outline. Third, many cell outlines are “ruffled” in some regions due to the presence of lamellipodia, plasmalemma projections that are the leading edges of cell expansion (open arrows in FIGS. 2B and 2D). Fourth, specialized cell-cell contact and communication regions are evident where the lamellipodia of two or more cells meet (closed arrows in FIGS. 2B and 2D). […] These characteristic features of HAT-treated neoplastic cells indicate that substrate-attachment-dependent survival and contact inhibition have both been restored in surviving neoplastic cells. […]
# [3] = test system: DU-145, a human prostate metastatic carcinoma cell line; assay: as above; assay type: cell-based; conditions: DU-145, 10 micromolar, 14 days in culture (more than 300 without drug)
# Source text: as §1, §2
# [4] = test system: PARP1; conditions: solution; Rankin, 1989; cited from earlier work
# [5] = biological target: T2, PARP1 (Mus musculus, UniProt P11103); conditions: cultured 10T1/2 cells; Rankin, 1989; cited from earlier work
# T2 construct: solution/cultured 10T1/2 cells; endogenous in cells; host or cells: cultured 10T1/2 cells
# [6] = biological target: T1, PARP1; conditions: solution; Pivazyan, 1992; cited from earlier work
# Target sequence in this assay (P09874 whole entry, species assumed): as the sequence (P09874 whole entry) above
# [7] = test system: Unresectable Sarcoma; conditions: trial e, 1987, 5 patients, dose 1.3, iv, with radiation, multiple cycles up to 5 months; cited from earlier work
# [8] = biological target: T1, PARP1; parameters: isolated HeLa cell nuclei; endogenous in cells; host or cells: isolated HeLa cell nuclei; conditions: 1 mM; Preiss, 1971; cited from earlier work
# Target sequence in this assay (P09874 whole entry): as above
# [9] = biological target: T1, PARP1; parameters: isolated HeLa cell nuclei; endogenous in cells; host or cells: isolated HeLa cell nuclei; conditions: 50 mM; Filetti, 1981; cited from earlier work
# Target sequence in this assay (P09874 whole entry): as above
# [10] = after infusion of bromodeoxyuridine or iododeoxyuridine; cited from earlier work
# [11] = biological target: T1, PARP1; conditions: cited from earlier work
# Target sequence in this assay (P09874 whole entry, species assumed): as the sequence (P09874 whole entry) above
# [12] = cited from earlier work
# [13] = test system: HeLa cells; conditions: cell culture; Sumikawa 2005; cited from earlier work
# [14] = schedule A, single oral dose 2.40 Grams IPdR per M^2/day
# [15] = schedule B, single oral dose 1.20 Grams IPdR per M^2/day
# [16] = schedule C, single oral dose 0.60 Grams IPdR per M^2/day
# [17] = schedule D, single oral dose 0.30 Grams IPdR per M^2/day
# [18] = schedule E, single oral dose 0.15 Grams IPdR per M^2/day
# T2 sequence (P11103 whole entry): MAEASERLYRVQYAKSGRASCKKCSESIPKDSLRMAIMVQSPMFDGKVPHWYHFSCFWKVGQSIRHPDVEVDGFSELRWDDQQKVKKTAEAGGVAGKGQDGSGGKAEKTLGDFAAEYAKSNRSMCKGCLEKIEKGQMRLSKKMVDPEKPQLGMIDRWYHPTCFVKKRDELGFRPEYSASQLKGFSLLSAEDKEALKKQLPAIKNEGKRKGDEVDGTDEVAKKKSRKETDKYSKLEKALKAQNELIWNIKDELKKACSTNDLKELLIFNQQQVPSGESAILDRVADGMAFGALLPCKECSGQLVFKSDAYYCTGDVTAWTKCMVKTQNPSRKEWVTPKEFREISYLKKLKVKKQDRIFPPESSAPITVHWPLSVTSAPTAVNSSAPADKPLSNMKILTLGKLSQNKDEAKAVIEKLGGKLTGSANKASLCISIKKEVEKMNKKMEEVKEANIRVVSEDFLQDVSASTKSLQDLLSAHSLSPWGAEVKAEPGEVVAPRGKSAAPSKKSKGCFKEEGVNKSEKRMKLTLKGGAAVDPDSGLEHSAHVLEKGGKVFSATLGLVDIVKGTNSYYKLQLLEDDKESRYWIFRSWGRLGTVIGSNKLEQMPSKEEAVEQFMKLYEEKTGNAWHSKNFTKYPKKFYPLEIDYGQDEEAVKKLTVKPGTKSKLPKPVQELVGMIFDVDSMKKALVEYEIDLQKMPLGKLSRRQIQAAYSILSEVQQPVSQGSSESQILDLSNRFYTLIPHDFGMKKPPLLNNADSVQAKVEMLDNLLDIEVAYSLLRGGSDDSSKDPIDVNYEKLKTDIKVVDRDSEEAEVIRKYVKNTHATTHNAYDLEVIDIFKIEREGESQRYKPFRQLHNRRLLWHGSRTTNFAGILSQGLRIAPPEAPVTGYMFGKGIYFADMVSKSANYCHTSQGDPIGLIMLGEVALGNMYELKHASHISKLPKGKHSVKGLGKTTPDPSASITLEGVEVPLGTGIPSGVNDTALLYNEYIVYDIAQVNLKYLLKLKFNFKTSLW
compound,measurement,setting,value
NC(=O)c1cccc(N)c1 [3-amino-benzamide],mode of inhibition,"[1]; Lineweaver-Burk plot, lines intersect vertical axis at control point",in competition with the substrate
"O=c1[nH]c(=O)n([C@H]2C[C@H](O)[C@@H](CO)O2)cc1Br [Bromodeoxyuridine, 5-bromodeoxyuridine]",Ki,"[1]; intercept of Lineweaver-Burk plot, 50 micromolar inhibitor, pH 7.3, read-out: inhibition constant",10 to 30 µM
same,total number of cells per field,[2],< 50 cells per field
same,total number of cells per field,[3],< 50 cells per field
same,IC50,[4],15 µM
same,IC50,[5],57 µM
same,Ki,[6],35 µM
same,objective improvement,[7],20%
same,subjective improvement,[7],20%
same,reported HAT inhibitory effect: inhibition,[8],1 mM = 97% inhibition
same,reported HAT inhibitory effect,[9],50 mM blocks hormone sensitization
"O=c1[nH]cc(Br)c(=O)[nH]1 [Bromouracil, 5-bromouracil]",catabolite concentration accumulated in patient plasma,[10],~100 µM
same,inhibition of PARP1 enzymatic activity,[11],demonstrated capacity to inhibit PARP1 enzymatic activity
"O=c1ncc(I)cn1[C@H]1C[C@H](O)[C@@H](CO)O1 [IPdR, 5-iodo-2-pyrimidinone-2′-deoxyribose]",IU AUC,[12]; [14],1057.8 µM·h
same,IdU AUC,[12]; [14],12.2 µM·h
same,"[IU] plasma (iodouracil), average maximum concentration",[12]; [14],133 µM
same,"[IdU] plasma, average maximum concentration",[12]; [14],4.0 µM
same,IU AUC,[12]; [15],102.7 µM·h
same,IdU AUC,[12]; [15],4.7 µM·h
same,"[IU] plasma (iodouracil), average maximum concentration",[12]; [15],34.2 µM
same,"[IdU] plasma, average maximum concentration",[12]; [15],2.1 µM
same,IU AUC,[12]; [16],17.2 µM·h
same,IdU AUC,[12]; [16],3.2 µM·h
same,"[IU] plasma (iodouracil), average maximum concentration",[12]; [16],4.5 µM
same,"[IdU] plasma, average maximum concentration",[12]; [16],1.8 µM
same,IU AUC,[12]; [17],4.5 µM·h
same,IdU AUC,[12]; [17],0.3 µM·h
same,"[IU] plasma (iodouracil), average maximum concentration",[12]; [17],0.8 µM
same,"[IdU] plasma, average maximum concentration",[12]; [17],0.3 µM
same,IU AUC,[12]; [18],1.0 µM·h
same,IdU AUC,[12]; [18],1.7 µM·h
same,"[IU] plasma (iodouracil), average maximum concentration",[12]; [18],0.2 µM
same,"[IdU] plasma, average maximum concentration",[12]; [18],0.8 µM
same,time to average peak concentration of iododeoxyuridine in patient plasma,[12]; single oral dose of IPdR,≤ 2 h
"O=c1[nH]cc(I)c(=O)[nH]1 [Iodouracil, 5-iodouracil]",catabolite concentration accumulated in patient plasma,[10],~100 µM
same,inhibition of PARP1 enzymatic activity,[11],demonstrated capacity to inhibit PARP1 enzymatic activity
"Cc1cn([C@H]2C[C@H](O)[C@@H](CO)O2)c(=O)[nH]c1=O [Thymidine, thymidine]","concentration that induces HeLa cells to attach, flatten and undergo cell death and disintegration",[13],> 1.0 millimolar
